Measurements from PubChem BioAssay (NCI).
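Compound exposure: 48 hours, 5 concentrations, 96-well plates. The concentration for full growth arrest is given as TGI.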

Key:
Assay in all cases: inhibition of tumour cell growth, NCI panel, 48 h
MDA-MB-231 breast = tested on: MDA-MB-231 breast
M14 melanoma = tested on: M14 melanoma
NCI-H226 lung = tested on: NCI-H226 lung
RXF 393 renal = tested on: RXF 393 renal
CCRF-CEM leukemia = tested on: CCRF-CEM leukemia
RPMI-8226 leukemia = tested on: RPMI-8226 leukemia
EKVX NSCLC = tested on: EKVX NSCLC
SNB-75 CNS = tested on: SNB-75 CNS
T-47D breast = tested on: T-47D breast
KM12 colon = tested on: KM12 colon
COLO 205 colon = tested on: COLO 205 colon
MALME-3M melanoma = tested on: MALME-3M melanoma
HCT-116 colon = tested on: HCT-116 colon
IGROV1 ovarian = tested on: IGROV1 ovarian
K-562 leukemia = tested on: K-562 leukemia

| SMILES | TGI (MDA-MB-231 breast) | TGI (M14 melanoma) | TGI (NCI-H226 lung) | TGI (RXF 393 renal) | TGI (CCRF-CEM leukemia) | TGI (RPMI-8226 leukemia) | TGI (EKVX NSCLC) | TGI (SNB-75 CNS) | TGI (T-47D breast) | TGI (KM12 colon) | TGI (COLO 205 colon) | TGI (MALME-3M melanoma) | TGI (HCT-116 colon) | TGI (IGROV1 ovarian) | TGI (K-562 leukemia) |
| --- | --- | --- | --- | --- | --- | --- | --- | --- | --- | --- | --- | --- | --- | --- | --- |
| O=CN1CCN(C(=O)c2ccc(Cl)cc2)C1=S | 34.5 µM | 27.7 µM | 80 µM | 31 µM | 37.4 µM | 17.1 µM | 29 µM | 36.8 µM | 36.4 µM | 25.2 µM | 41.9 µM | 41.8 µM | 34.8 µM | 28.5 µM | 39.6 µM |
| CC1C2CC(CC2O)C1(C)C (stereo not drawn) | > 100 µM | > 100 µM | > 100 µM | > 100 µM | > 100 µM |  |  | > 100 µM | > 100 µM | > 100 µM | > 100 µM | > 100 µM | > 100 µM | > 100 µM | > 100 µM |
| c1csc(-c2ccc(-c3ccsc3)s2)c1 | > 100 µM | > 100 µM | > 100 µM | > 100 µM | > 100 µM | > 100 µM | > 100 µM | > 100 µM | > 100 µM | > 100 µM | > 100 µM | > 100 µM | > 100 µM | > 100 µM | > 100 µM |
| Cn1c2c(c3ccccc31)CC(=O)N1CCCC(C1)CC21OCCO1 (stereo not drawn) | > 100 µM | > 100 µM | > 100 µM | > 100 µM | > 100 µM | > 100 µM | > 100 µM | > 100 µM | > 100 µM | > 100 µM | > 100 µM | > 100 µM | > 100 µM | > 100 µM | > 100 µM |
| Nc1nc(Cl)cc(NCC2(CO)CC(c3ccccc3)C2)n1 (stereo not drawn) | > 100 µM | > 100 µM | > 100 µM | > 100 µM | > 100 µM | > 100 µM | 84.5 µM | > 100 µM | > 100 µM | > 100 µM | > 100 µM | > 100 µM | > 100 µM | > 100 µM | > 100 µM |
| Cc1cc(O)c2c(c1)C(=O)C=C(Br)C2=O | 33.8 µM | 29.5 µM | 34.8 µM |  | 4.1 µM | 23 µM | > 61.2 µM | 31 µM | 14.9 µM | > 55.8 µM | 19.2 µM | 17.2 µM | 30.8 µM | > 60.2 µM | 3.38 µM |
| CCOC(=O)C(Cc1ccc2c(c1)CCC2)Cc1ccc2c(c1)CCC2 | > 100 µM | > 100 µM |  | > 100 µM | > 100 µM | > 100 µM | > 100 µM | > 100 µM | > 100 µM |  |  | > 100 µM | > 100 µM | > 100 µM | 85.7 µM |
| c1ccc2c(c1)ncn2CCn1ccnc1 | > 100 µM | > 100 µM | > 100 µM | > 100 µM | > 100 µM | > 100 µM | > 100 µM | > 100 µM | > 100 µM | > 100 µM | > 100 µM | > 100 µM |  | > 100 µM | > 100 µM |
